Laboratory results: patent EP0462621A2, “Use of particular compounds for manufacture of pharmaceutical formulations for treatment against various parasites, mycoplasmas, other indications and other infections” (Prendergast, Patrick Thomas, priority 1990, dated 1991)

Columns and labels:
[1] = Stability of IPA on storage; type: physicochemical
Procedure: Compounds of Formula la (IPA) have especially low toxicity for pediatrics, and acceptable toxicity of adult humans, although it is somewhat higher than for pediatrics. IPA can be stored dry almost indefinitely if protected from light and stored at -75 °C. IPA is photosensitive and deteriorates at room temperature, whether in a solid form or in aqueous or ethanolic solutions. It was found in experiments that the breakdown rate of IPA is approximately 3% per month in a dark container at room temperature.
Two lots of IPA (Sample 1 and Sample 2) were tested.
Infrared spectra of IPA, taken from time to time, as described below, were used to monitor changes which may have occurred in the IPA over time. The compound was generally stored at -10° C. FT-IR data of fresh IPA are listed in the first column of Table la(m). A second FT-IR spectrum of the same compound, after storage at -10 C for 110 days, was taken and the data are listed in the second column of Table la(m). The melting point of the compound was taken at the same time. The original melting point was 128-130 C, and the second melting point, 110 days later, was 129-132 C.
The observed melting points compare favorably with literature melting points ranging from 126° C to 138° C.

human mononuclear cells = experiment: Mixed leukocyte culture (MLC) reaction; type: cell-based
Procedure: T and B lymphocytes from normal human donors were incubated for 30 minutes at various dose levels of the compounds indicated. The lymphocytes were added in triplicate wells in gentamicin and phytohemagglutinin (PHA) (a T cell mitogen), pokeweed mitogen (PWM) (a B cell mitogen) and allogeneic mononuclear cells (mixed leukocyte cultures; MLC) or media containing the above additives. The lymphocyte blastogenesis assay is described in detail below.
Mixed leukocyte culture (MLC) reactions may be used to evaluate the ability of human mononuclear cells to recognize and immunologically react to human histocompatibility antigen (measurement of the ability of the cells to mount a primary immune response to an antigen). Cultures of one set of human mononuclear cells were reacted with mononuclear cells from an unrelated donor in lymphocyte blastogenesis assays and the proliferation of the first set of cells was quantitated. The results are presented in Charts la(e) (v) and la(e) (vi) (Figs. 5 and 6). Again, as with lymphocyte blastogenesis with mitogens, the MLC was run in replicates of three and a mean value obtained.
• 1. Mononuclear cells are separated from whole blood by differential centrifugation using a synthetic separation medium, or are thawed from a cryopreserved preparation. The cells are washed and resuspended in media (RPMI - 1640, L-Glutamine 2mM, Herpes Buffer 25mM, Gentamicin 50 ug/ml, Human AB Serum-heat inactivated (56°, 30°) 20%). • 2. A viable cell count is determined. • 3. Cell concentration is adjusted to 2 x 10^6 /ml in media. • 4. The cell suspension is added to wells of a 96-well flat bottom plate in 0.1 ml aliquots (2 x 10^5 cells). • 5. The selected mitogens and/or antigens (in media without serum) are added to the cells in the wells also in 0.1 ml aliquots. • 6. The cultures are incubated for 3-7 days (depending upon the mitogen or antigen) at 37° C in a humidified 5% C02 atmosphere. • 7. […] The vials are counted in a liquid scintillation counter for one minute where the amount of incorporated ^3HTdR is determined.

[2] = test system: herpes simplex type 1 (HSV-1); experiment: M413 cells, HSV-1; type: cell-based; settings: M413 cell line of human fibroblasts
Procedure: A procedure similar to that described for Experiment la(g) was followed except herpes simplex virus- type I (HSV-I) was used.
The experiments were performed in duplicate M413 cells which were set up in Titer-Tek slides (4 well, glass) and those that were confluent within one day were used in experiments. Within 24-48 hours, cell densities were checked to ensure sufficiency to proceed with infection. Stock HSV-1 was serially diluted in 10-fold steps (1, 10^-1, 10-^2, 10-^3, 10-^4) to provide 2 ml of each dilution: 0.2/1.8 ml diluent to finally yield overall dilutions of approximately 10^-1, 10^-2, 10-^3, 10^-4, 10-^5. Virus absorption was allowed for 90 minutes at 37 °C, after which time the inoculum was removed and replaced with solutions containing IPA at the concentrations as indicated in Table la(j). The slide was incubated for 3 days and stained with the following antisera: monoclonal antibody (MAB) to HSV-1 virus capsid antigen (VCA) at 1:20; control mores IgG at 1:20.

Enterocytozoon bieneusi = experiment: Clinical evaluation of AIDS patients with chronic diarrhoea treated with IPA (stool examinations, endoscopic biopsies); type: in vivo; settings: E. bieneusi identified prior to treatment
Source text: Chronic diarrhoea accompanied by wasting is one of the most frequent problems associated with HIV infection. […] A new genera and species of microspora, Enterocytozoon bieneusi, was identified in ultrastructural studies of intestinal biopsies from AIDS patients with unexplained chronic diarrhoea prior to treatment with IPA.
E. bieneusi microsporidiosis (intestinal microsporidiosis) is diagnosed with increasing frequency in AIDS patients with chronic diarrhoea of unknown origin. Forty-seven cases have been reported in the United States, Africa and Europe. […] Until now, diagnosis depended upon light and electron microscopy studies of small bowel biopsies, particularly of the jejunum. Diagnosis is suspected on histological findings either on Giemsa-stained smears and/or hematoxylin-eosin or Giemsa-stained paraffin sections: identification of oval parasites measuring 2-9 u.m and clusters of refractile spores (1-1.5 u.m) in villous enterocytes from just above the mouth of the crypts to the tips of the villi. These organisms are located in the supranuclear position of the cytoplasm. […] Recently reported recovery of spores from faeces, would simplify diagnosis. Unlike other species of microspora, E. bieneusi has not been identified from different organs such as brain and kidney. A proportion of transient diarrhoeas of unknown etiology in AIDS patients may be related to E. bieneusi. […]

Structure (SMILES): CC(C)=CCNc1ncnc2c1ncn2[C@@H]1O[C@H](CO)[C@@H](O)[C@H]1O [IPA, N^6-(Δ^2-isopentenyl) adenosine]
- change in the compound on storage ([1]; Sample 1, tests over four months): no change in the compound
- breakdown rate ([1]; dark container at room temperature): approximately 3 % per month
- change in the FT-IR spectrum on storage ([1]; storage at -10 C for 110 days): little change in the FT-IR spectrum
- reduction in MLC reactivity (human mononuclear cells; 1 µM): 50%
- MLC reactivity (human mononuclear cells; 10 µM): No effect
- MLC reactivity (human mononuclear cells; 100 u.M): slight increase
- in-vitro levels of herpes simplex type 1 (HSV-1) [2]: reduces
- pathogen found on clinical evaluation (Enterocytozoon bieneusi): fails to identify any pathogen
